Measurements from patent publication US9951093B2, “Chiral compounds substituted with phosphonic acid ester functions or phosphonic acid functions” (UGISense AG, priority 2006, dated 2018).

Test system: HIV-1-NL4-3
Assay: p24 ELISA in H9 cells chronically infected with HIV-1-NL4-3 (antisense effect)
Format: cell-based
Conditions: H9 cells chronically infected with HIV-1-NL4-3, 5 days of incubation, p24 GAG ELISA
Procedure: H9 cells, chronically infected with strain HIV-1-NL4-3 are washed twice with a PBS buffer in order to remove viruses already produced. The cells are incubated in a 96-well plate with 10^4 cells/well, 4 wells per sample, in 200 μl culturing medium with or without a compound according to the invention or Ritonavir, respectively, at a distinct concentration. After 5 days of incubation, 40 μl of the cell suspension are taken from each of the 4 wells and inactivated with 40 μl Nonidet P-40.
The amount of the antigen p24 GAG is determined by a quantitative ELISA assay (Sandwich-ELISA-Biotin-Strepavidin-HRP) according to the standard method of the Institute for Applied Microbiology in Vienna. As a standard, samples with a known amount of p24 are used to investigate the standard calibration curve.
In this context, in the case of stereochemically non-uniform oligomers of the sequence […]-NH2 (SEQ ID NO: 1), a reduction of the amount of p24 of 21% can be observed compared with the untreated sample.

For “TCGCTGCCAAAGAGT-NH2: stereochemically non-uniform oligomers of the sequence TCGCTGCCAAAGAGT-NH2 (SEQ ID NO: 1), as in EP 1157031 (3'-NH2, stereochemically non-uniform, chemistry not fully specified)”, the “reduction of the amount of p24 compared with the untreated sample” value was 21%.
